According to ChEMBL document CHEMBL1795325, “Studying synergism of methyl linked cyclohexyl thiophenes with triazole: synthesis and their cdk5/p25 inhibition activity” (Eur J Med Chem, 2011):

Molecular target: Cyclin-dependent kinase 5/CDK5 activator 1 (Homo sapiens, UniProt Q00535)
Type: protein-complex assay

Sequence of Cyclin-dependent kinase 5/CDK5 activator 1 (Q00535 whole entry): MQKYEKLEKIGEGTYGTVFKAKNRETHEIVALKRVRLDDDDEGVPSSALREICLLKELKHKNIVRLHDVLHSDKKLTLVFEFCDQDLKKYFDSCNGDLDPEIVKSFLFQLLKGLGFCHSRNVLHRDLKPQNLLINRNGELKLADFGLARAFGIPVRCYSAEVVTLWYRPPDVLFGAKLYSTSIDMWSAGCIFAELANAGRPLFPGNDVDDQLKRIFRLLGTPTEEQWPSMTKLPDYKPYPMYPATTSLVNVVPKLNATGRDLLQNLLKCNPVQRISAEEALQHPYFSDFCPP
Sequence of Cyclin-dependent kinase 5/CDK5 activator 1 (Q15078 whole entry, further chain): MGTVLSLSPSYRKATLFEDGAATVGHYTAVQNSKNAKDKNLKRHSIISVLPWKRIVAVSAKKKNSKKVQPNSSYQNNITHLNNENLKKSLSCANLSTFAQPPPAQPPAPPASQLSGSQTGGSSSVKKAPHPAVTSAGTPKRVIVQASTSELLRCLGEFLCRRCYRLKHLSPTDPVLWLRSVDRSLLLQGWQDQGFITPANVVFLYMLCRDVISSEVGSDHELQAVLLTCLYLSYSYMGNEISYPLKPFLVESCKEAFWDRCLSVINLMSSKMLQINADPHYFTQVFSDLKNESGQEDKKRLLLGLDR

SMILES | IC50
O=C(Nc1sc2c(c1Cc1nnc(SCSc3nnc(Cc4c(NC(=O)c5ccccc5)sc5c4CCCC5)n3NC(=O)c3ccc(Cl)cc3)n1NC(=O)c1ccc(Cl)cc1)CCCC2)c1ccccc1 | 627 nM
CC(=O)Nn1c(Cc2c(NCCC(=O)O)sc3c2CCCC3)nnc1SCc1nnc(S)n1N | 6210 nM
O=C(CSc1nnc(Cc2c(NC(=O)c3ccccc3)sc3c2CCCC3)n1NC(=O)c1ccc(Cl)cc1)N/N=C/c1ccccc1 | 217 nM
Nn1c(S)nnc1CSc1nnc(Cc2c(NC(=O)c3ccccc3)sc3c2CCCC3)n1NC(=O)c1ccc(Cl)cc1 | 3280 nM
CC(=O)Nc1sc2c(c1Cc1n[nH]c(=S)n1NC(=O)c1ccc(Cl)cc1)CCCC2 | 460 nM
O=C(O)CCNc1sc2c(c1Cc1nnc(SCC(=O)N/N=C/c3ccccc3)n1NC(=O)c1ccccc1)CCCC2 | 267 nM
O=C(O)CCNc1sc2c(c1Cc1nnc(SCC(=O)NNC(=O)c3ccccc3)n1NC(=O)c1ccccc1)CCCC2 | 434 nM
O=C(O)CCNc1sc2c(c1Cc1nnc(SCSc3nnc(Cc4c(NCCC(=O)O)sc5c4CCCC5)n3NC(=O)c3ccc(Cl)cc3)n1NC(=O)c1ccc(Cl)cc1)CCCC2 | 164 nM
CC(=O)Nc1sc2c(c1Cc1nnc(SCc3nnc(S)n3N)n1NC(=O)c1ccc(Cl)cc1)CCCC2 | 6380 nM
CC(=O)Nc1sc2c(c1Cc1nnc(SCSc3nnc(Cc4c(NC(C)=O)sc5c4CCCC5)n3NC(=O)c3ccccc3)n1NC(=O)c1ccccc1)CCCC2 | 646 nM
CC(=O)Nn1c(Cc2c(NCCC(=O)O)sc3c2CCCC3)nnc1SCC(=O)NN | 931 nM
O=C(O)CCNc1sc2c(c1Cc1nnc(SCC(=O)N/N=C/c3ccccc3)n1NC(=O)c1ccc(Cl)cc1)CCCC2 | 258 nM
O=C(O)CCNc1sc2c(c1Cc1nnc(SCC(=O)NNC(=O)c3ccccc3)n1NC(=O)c1ccc(Cl)cc1)CCCC2 | 271 nM
CC(=O)Nc1sc2c(c1Cc1nnc(SCC(=O)NN)n1NC(C)=O)CCCC2 | 249 nM
CC(=O)NNC(=O)CSc1nnc(Cc2c(NC(C)=O)sc3c2CCCC3)n1NC(C)=O | 327 nM
CC(=O)Nc1sc2c(c1Cc1nnc(SCSc3nnc(Cc4c(NC(C)=O)sc5c4CCCC5)n3NC(C)=O)n1NC(C)=O)CCCC2 | 839 nM
CC(=O)Nn1c(Cc2c(NCCC(=O)O)sc3c2CCCC3)nnc1SCC(=O)NNC(=O)CCl | 265 nM
CC(=O)Nn1c(Cc2c(NCCC(=O)O)sc3c2CCCC3)nnc1SCC(=O)N/N=C/c1ccccc1 | 535 nM
O=C(CSc1nnc(Cc2c(NC(=O)c3ccccc3)sc3c2CCCC3)n1NC(=O)c1ccc(Cl)cc1)NNC(=O)c1ccccc1 | 483 nM
Nn1c(S)nnc1CSc1nnc(Cc2c(NCCC(=O)O)sc3c2CCCC3)n1NC(=O)c1ccc(Cl)cc1 | 5850 nM

SMILES | IC50
CC(=O)Nn1c(Cc2c(NCCC(=O)O)sc3c2CCCC3)nnc1SCSc1nnc(Cc2c(NCCC(=O)O)sc3c2CCCC3)n1NC(C)=O | 734 nM
O=C(O)CCNc1sc2c(c1Cc1nnc(SCSc3nnc(Cc4c(NCCC(=O)O)sc5c4CCCC5)n3NC(=O)c3ccccc3)n1NC(=O)c1ccccc1)CCCC2 | 577 nM
CC(=O)NNC(=O)CSc1nnc(Cc2c(NCCC(=O)O)sc3c2CCCC3)n1NC(C)=O | 366 nM
CC(=O)Nc1sc2c(c1Cc1nnc(S)n1NC(C)=O)CCCC2 | 584 nM
O=C(CSc1nnc(Cc2c(NC(=O)c3ccccc3)sc3c2CCCC3)n1NC(=O)c1ccccc1)NNC(=O)c1ccccc1 | 466 nM
CC(=O)Nc1sc2c(c1Cc1nnc(SCC(=O)NNC(=O)CCl)n1NC(C)=O)CCCC2 | 474 nM
O=C(CSc1nnc(Cc2c(NC(=O)c3ccccc3)sc3c2CCCC3)n1NC(=O)c1ccccc1)N/N=C/c1ccccc1 | 435 nM
O=C(O)CCNc1sc2c(c1Cc1nnc(SCC(=O)NNC(=O)CCl)n1NC(=O)c1ccc(Cl)cc1)CCCC2 | 185 nM
CC(=O)Nc1sc2c(c1Cc1nnc(SCc3n[nH]c(=S)n3N)n1NC(C)=O)CCCC2 | 5150 nM
CC(=O)Nc1sc2c(c1Cc1nnc(SCC(=O)NNC(=O)CCl)n1NC(=O)c1ccc(Cl)cc1)CCCC2 | 260 nM
CC(=O)Nn1c(Cc2c(NCCC(=O)O)sc3c2CCCC3)n[nH]c1=S | 433 nM
O=C(O)CCNc1sc2c(c1Cc1nnc(S)n1NC(=O)c1ccc(Cl)cc1)CCCC2 | 457 nM
O=C(O)CCNc1sc2c(c1Cc1n[nH]c(=S)n1NC(=O)c1ccccc1)CCCC2 | 674 nM
COC(=O)CSc1nnc(Cc2c(NCCC(=O)O)sc3c2CCCC3)n1NC(=O)c1ccc(Cl)cc1 | 541 nM
COC(=O)CSc1nnc(Cc2c(NC(C)=O)sc3c2CCCC3)n1NC(C)=O | 389 nM
COC(=O)CSc1nnc(Cc2c(NCCC(=O)O)sc3c2CCCC3)n1NC(C)=O | 733 nM
CC(=O)NNC(=O)CSc1nnc(Cc2c(NCCC(=O)O)sc3c2CCCC3)n1NC(=O)c1ccc(Cl)cc1 | 352 nM
O=C(Nc1sc2c(c1Cc1nnc(SCSc3nnc(Cc4c(NC(=O)c5ccccc5)sc5c4CCCC5)n3NC(=O)c3ccccc3)n1NC(=O)c1ccccc1)CCCC2)c1ccccc1 | 695 nM
NNC(=O)CSc1nnc(Cc2c(NCCC(=O)O)sc3c2CCCC3)n1NC(=O)c1ccc(Cl)cc1 | 201 nM
CC(=O)Nc1sc2c(c1Cc1nnc(SCSc3nnc(Cc4c(NC(C)=O)sc5c4CCCC5)n3NC(=O)c3ccc(Cl)cc3)n1NC(=O)c1ccc(Cl)cc1)CCCC2 | 367 nM

Continued, values first:

IC50 | SMILES
180 nM | CC(=O)Nn1c(Cc2c(NC(=O)c3ccccc3)sc3c2CCCC3)nnc1SCC(=O)NN
467 nM | CC(=O)NNC(=O)CSc1nnc(Cc2c(NCCC(=O)O)sc3c2CCCC3)n1NC(=O)c1ccccc1
4990 nM | Nn1c(CSc2nnc(Cc3c(NCCC(=O)O)sc4c3CCCC4)n2NC(=O)c2ccccc2)n[nH]c1=S
393 nM | CC(=O)Nc1sc2c(c1Cc1nnc(SCC#N)n1NC(=O)c1ccccc1)CCCC2
641 nM | CC(=O)NNC(=O)CSc1nnc(Cc2c(NC(C)=O)sc3c2CCCC3)n1NC(=O)c1ccc(Cl)cc1
564 nM | CC(=O)NNC(=O)CSc1nnc(Cc2c(NC(=O)c3ccccc3)sc3c2CCCC3)n1NC(=O)c1ccccc1
411 nM | CC(=O)Nn1c(Cc2c(NC(=O)c3ccccc3)sc3c2CCCC3)nnc1SCC(=O)NNC(=O)c1ccccc1
415 nM | CC(=O)Nc1sc2c(c1Cc1nnc(SCC#N)n1NC(=O)c1ccc(Cl)cc1)CCCC2
453 nM | CC(=O)Nc1sc2c(c1Cc1nnc(SCC(=O)N/N=C/c3ccccc3)n1NC(C)=O)CCCC2
213 nM | CC(=O)Nc1sc2c(c1Cc1nnc(SCC(=O)N/N=C/c3ccccc3)n1NC(=O)c1ccc(Cl)cc1)CCCC2
891 nM | O=C(Nc1sc2c(c1Cc1nnc(S)n1NC(=O)c1ccccc1)CCCC2)c1ccccc1
413 nM | CC(=O)Nc1sc2c(c1Cc1nnc(SCC(=O)NNC(=O)c3ccccc3)n1NC(=O)c1ccccc1)CCCC2
4590 nM | Nn1c(CSc2nnc(Cc3c(NC(=O)c4ccccc4)sc4c3CCCC4)n2NC(=O)c2ccccc2)n[nH]c1=S
572 nM | CC(=O)Nc1sc2c(c1Cc1n[nH]c(=S)n1NC(=O)c1ccccc1)CCCC2
467 nM | CC(=O)Nn1c(Cc2c(NC(=O)c3ccccc3)sc3c2CCCC3)nnc1SCC(=O)N/N=C/c1ccccc1
183 nM | O=C(Nc1sc2c(c1Cc1nnc(S)n1NC(=O)c1ccc(Cl)cc1)CCCC2)c1ccccc1
358 nM | CC(=O)Nn1c(Cc2c(NC(=O)c3ccccc3)sc3c2CCCC3)nnc1SCC(=O)NNC(=O)CCl
6140 nM | CC(=O)Nn1c(Cc2c(NC(=O)c3ccccc3)sc3c2CCCC3)nnc1SCc1nnc(S)n1N
385 nM | CC(=O)Nc1sc2c(c1Cc1nnc(SCC(=O)N/N=C/c3ccccc3)n1NC(=O)c1ccccc1)CCCC2
353 nM | COC(=O)CSc1nnc(Cc2c(NC(=O)c3ccccc3)sc3c2CCCC3)n1NC(=O)c1ccccc1
641 nM | COC(=O)CSc1nnc(Cc2c(NCCC(=O)O)sc3c2CCCC3)n1NC(=O)c1ccccc1
547 nM | O=C(CCl)NNC(=O)CSc1nnc(Cc2c(NC(=O)c3ccccc3)sc3c2CCCC3)n1NC(=O)c1ccccc1

IC50 | SMILES
525 nM | CC(=O)Nc1sc2c(c1Cc1nnc(SCC(=O)NNC(=O)c3ccccc3)n1NC(=O)c1ccc(Cl)cc1)CCCC2
551 nM | N#CCSc1nnc(Cc2c(NC(=O)c3ccccc3)sc3c2CCCC3)n1NC(=O)c1ccc(Cl)cc1
564 nM | CC(=O)Nn1c(Cc2c(NC(=O)c3ccccc3)sc3c2CCCC3)nnc1SCC#N
362 nM | O=C(O)CCNc1sc2c(c1Cc1nnc(SCC(=O)NNC(=O)CCl)n1NC(=O)c1ccccc1)CCCC2
455 nM | NNC(=O)CSc1nnc(Cc2c(NCCC(=O)O)sc3c2CCCC3)n1NC(=O)c1ccccc1
486 nM | N#CCSc1nnc(Cc2c(NC(=O)c3ccccc3)sc3c2CCCC3)n1NC(=O)c1ccccc1
192 nM | CC(=O)Nc1sc2c(c1Cc1nnc(SCC(=O)NN)n1NC(=O)c1ccccc1)CCCC2
436 nM | CC(=O)Nc1sc2c(c1Cc1nnc(SCC(=O)NNC(=O)c3ccccc3)n1NC(C)=O)CCCC2
318 nM | CC(=O)NNC(=O)CSc1nnc(Cc2c(NC(=O)c3ccccc3)sc3c2CCCC3)n1NC(=O)c1ccc(Cl)cc1
340 nM | O=C(CCl)NNC(=O)CSc1nnc(Cc2c(NC(=O)c3ccccc3)sc3c2CCCC3)n1NC(=O)c1ccc(Cl)cc1
548 nM | CC(=O)NNC(=O)CSc1nnc(Cc2c(NC(C)=O)sc3c2CCCC3)n1NC(=O)c1ccccc1
643 nM | CC(=O)Nc1sc2c(c1Cc1nnc(SCC(=O)NNC(=O)CCl)n1NC(=O)c1ccccc1)CCCC2
293 nM | COC(=O)CSc1nnc(Cc2c(NC(=O)c3ccccc3)sc3c2CCCC3)n1NC(=O)c1ccc(Cl)cc1
422 nM | N#CCSc1nnc(Cc2c(NCCC(=O)O)sc3c2CCCC3)n1NC(=O)c1ccc(Cl)cc1
4870 nM | N#CCSc1nnc(Cc2c(NCCC(=O)O)sc3c2CCCC3)n1NC(=O)c1ccccc1
264 nM | NNC(=O)CSc1nnc(Cc2c(NC(=O)c3ccccc3)sc3c2CCCC3)n1NC(=O)c1ccccc1
618 nM | CC(=O)Nn1c(S)nnc1Cc1c(NC(=O)c2ccccc2)sc2c1CCCC2
641 nM | CC(=O)Nn1c(Cc2c(NCCC(=O)O)sc3c2CCCC3)nnc1SCC#N
476 nM | CC(=O)Nn1c(Cc2c(NCCC(=O)O)sc3c2CCCC3)nnc1SCC(=O)NNC(=O)c1ccccc1
567 nM | COC(=O)CSc1nnc(Cc2c(NC(=O)c3ccccc3)sc3c2CCCC3)n1NC(C)=O
6440 nM | CC(=O)Nc1sc2c(c1Cc1nnc(SCc3n[nH]c(=S)n3N)n1NC(=O)c1ccccc1)CCCC2
578 nM | COC(=O)CSc1nnc(Cc2c(NC(C)=O)sc3c2CCCC3)n1NC(=O)c1ccccc1
